Assay results taken from US6900019B1, “In-situ cell extraction and assay method” (Amersham Biosciences UK Limited, priority 1997, dated 2005).

Molecular target: T1, Interleukin-6 / anti-IL-6 antibody binding (Homo sapiens, UniProt P05231)
T1 construct: purchased Amersham RPN 2754
Assay: IL-6 ELISA standard curves with lysis reagent and sequestrant
Conditions: 1% DTAB in standards
Description: Working standards (10.24400 pg/ml IL-6) were prepared in polypropylene tubes using assay buffer containing 1% (w/v) DTAB. The biotinylated antibody was prepared in buffer containing 3% (w/v) alpha-cyclodextrin. 50 μl of biotinylated antibody (containing cyclodextrin) was added to the anti-IL-6 coated plate. 50 μl of working standard and cell lysate was pipetted into separate wells of the anti-IL-6 coated plate. Non-specific binding was measured in the absence of IL-6 (zero IL-6 standard). The order of addition of biotinylated antibody and samples/standards is not critical to the procedure. […] The optical density was determined with a microtitre plate spectrophotometer set at 450 nm. Interleukin-6 levels were determined using log/linear analysis with reference to a standard curve. […]
(§1) Interleukin-6 standards (10.24-400 pg/ml) were prepared in standard diluent either in the presence (□) or absence (●) of lysis reagent (1% w/v DTAB). […] The plate was incubated for 2 hours at room temperature, and the optical density measured as described under the methods section.
as §1

T1 sequence (P05231 30-212): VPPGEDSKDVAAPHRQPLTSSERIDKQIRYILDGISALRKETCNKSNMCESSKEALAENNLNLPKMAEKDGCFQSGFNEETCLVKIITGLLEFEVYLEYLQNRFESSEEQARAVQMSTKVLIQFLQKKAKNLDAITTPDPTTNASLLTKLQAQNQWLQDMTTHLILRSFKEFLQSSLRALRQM

Compound | antibody binding in the IL-6 ELISA (3% (w/v) alpha-cyclodextrin in biotinylated antibody) | antibody binding in the IL-6 ELISA (zero cyclodextrin)
OC[C@H]1O[C@@H]2O[C@H]3[C@H](O)[C@@H](O)[C@@H](O[C@H]4[C@H](O)[C@@H](O)[C@@H](O[C@H]5[C@H](O)[C@@H](O)[C@@H](O[C@H]6[C@H](O)[C@@H](O)[C@@H](O[C@H]7[C@H](O)[C@@H](O)[C@@H](O[C@H]1[C@H](O)[C@H]2O)O[C@@H]7CO)O[C@@H]6CO)O[C@@H]5CO)O[C@@H]4CO)O[C@@H]3CO [CD, alpha-cyclodextrin] | Binding was restored | 
CCCCCCCCCCCC[N+](C)(C)C.[Br-] [DTAB, dodecyl trimethyl ammonium bromide] |  | inhibition of antibody binding
